Data reported in US20070208052A1, “Aryloxy and arylalkyleneoxy substituted thiazoloquinolines and thiazolonaphthyridines” (priority 2004, published 2007).

melting point [°C] | SMILES
152 to 154 | CCc1nc2c(N)nc3cc(OCc4ccc(C(F)(F)F)o4)ccc3c2s1 [Example 36, 2-Ethyl-7-{[5-(trifluoromethyl)furan-2-yl]methoxy} thiazolo[4,5-c]quinolin-4-amine]
100 to 101 | CCc1nc2c(N)nc3cc(OCc4ccc(S(=O)(=O)NCCc5cc6ccccc6[nH]5)cc4)ccc3c2s1 [Example 37, 4-{[(4-Amino-2-ethylthiazolo[4,5-c]quinolin-7-yl)oxy]methyl}-N-[2-(1H-indol-2-yl)ethyl]benzenesulfonamide]
229 to 230 | CCc1nc2c(N)nc3cc(OCc4cccc(Cl)n4)ccc3c2s1 [Example 38, 7-[(6-Chloropyridin-2-yl)methoxy]-2-ethylthiazolo[4,5-c]quinolin-4-amine]
195 to 197 | CCc1nc2c(N)nc3cc(OCCc4c(C)n[nH]c4C)ccc3c2s1 [Example 39, 7-[2-(3,5-Dimethyl-1H-pyrazol-4-yl)ethoxy]-2-ethylthiazolo[4,5-c]quinolin-4-amine]
194 to 197 | CCc1nc2c(N)nc3cc(OCCCn4cc(CO)nn4)ccc3c2s1 [Example 40, (1-{[3-(4-Amino-2-ethylthiazolo[4,5-c]quinolin-7-yl)oxy]propyl}-1H-[1,2,3]triazol-4-yl)methanol]
211 to 212 | CCc1nc2c(N)nc3cc(OCc4nc5ccccc5s4)ccc3c2s1 [Example 41, 7-[(1,3-Benzothiazol-2-yl)methoxy]-2-ethylthiazolo[4,5-c]quinolin-4-amine]
184 to 186 | CCc1nc2c(N)nc3cc(OCc4ccc(C(=O)OC)o4)ccc3c2s1 [Example 42, Methyl 5-{[(4-amino-2-ethylthiazolo[4,5-c]quinolin-7-yl)oxy]methyl}-2-furoate]
186 to 187 | CCc1nc2c(N)nc3cc(OCc4cccc(CO)n4)ccc3c2s1 [Example 43]
213 to 214 | CCc1nc2c(N)nc3cc(Oc4ccc(C(=O)OC)cn4)ccc3c2s1 [Example 44, Methyl 6-[(4-amino-2-ethylthiazolo[4,5-c]quinolin-7-yl)oxy]nicotinate]
218 to 220 | CCc1nc2c(N)nc3cc(OCCc4c[nH]c5ccccc45)ccc3c2s1 [Example 45, 2-ethyl-7-[2-(1H-indol-3-yl)ethoxy]thiazolo[4,5-c]quinolin-4-amine]

Second part, the compound before the results:

SMILES | melting point [°C]
CCCc1nc2c(N)nc3cc(OCc4ccccc4)ccc3c2s1 [Example 1, 7-Benzyloxy-2-propylthiazolo[4,5-c]quinolin-4-amine] | 175 to 178
CCCc1nc2c(N)nc3cc(OCc4ccc(F)cc4)ccc3c2s1 [Example 2, 7-(4-Fluorobenzyloxy)-2-propylthiazolo[4,5-c]quinolin-4-amine] | 189 to 192
CCCc1nc2c(N)nc3cc(OCCc4ccc(F)cc4)ccc3c2s1 [Example 3, 7-[2-(4-Fluorophenyl)ethoxy]-2-propylthiazolo[4,5-c]quinolin-4-amine] | 145 to 148
CCCc1nc2c(N)nc3cc(OCCOCc4ccccc4)ccc3c2s1 [Example 4, 7-[2-(Benzyloxy)ethoxy]-2-propylthiazolo[4,5-c]quinolin-4-amine] | 142 to 145
CCCc1nc2c(N)nc3cc(OCc4ccoc4)ccc3c2s1 [Example 5, 7-(Furan-3-ylmethyloxy)-2-propylthiazolo[4,5-c]quinolin-4-amine] | 170 to 171
CCc1nc2c(N)nc3cc(OCc4ccccc4)ccc3c2s1 [Example 29, 7-Benzyloxy-2-ethylthiazolo[4,5-c]quinolin-4-amine] | 208 to 209
CCc1nc2c(N)nc3cc(OCCCc4cccnc4)ccc3c2s1 [Example 30, 2-Ethyl-7-[3-(pyridin-3-yl)propoxy]thiazolo[4,5-c]quinolin-4-amine] | 172 to 173
CCCc1nc2c(N)nc3cc(OCc4cscn4)ccc3c2s1 [Example 31, 2-Propyl-7-[(thiazol-4-yl)methoxy]thiazolo[4,5-c]quinolin-4-amine] | 218 to 220
CCCc1nc2c(N)nc3cc(OCc4cccnc4)ccc3c2s1 [Example 32, 2-Propyl-7-[(pyridin-3-yl)methoxy]thiazolo[4,5-c]quinolin-4-amine] | 167 to 169
CCCc1nc2c(N)nc3cc(OCCn4cccc4)ccc3c2s1 [Example 33, 2-Propyl-7-[2-(pyrrol-1-yl)ethoxy]thiazolo[4,5-c]quinolin-4-amine] | 158 to 160
CCCc1nc2c(N)nc3cc(OCCCn4cccc4)ccc3c2s1 [Example 34, 2-Propyl-7-[3-(pyrrol-1-yl)propoxy]thiazolo[4,5-c]quinolin-4-amine] | 152 to 154
CCCc1nc2c(N)nc3cc(OCc4c(C)noc4C)ccc3c2s1 [Example 35, 7-[(3,5-Dimethylisoxazol-4-yl)methoxy]-2-propylthiazolo[4,5-c]quinolin-4-amine] | 178 to 180
